Results as given in patent publication US20060069132A1, “Azolecarboxamide herbicides” (priority 2004, published 2006).

Columns and labels:
[1] = tested on: barnyardgrass; assay: Test A pre-/postemergence herbicide test; type: in vivo, Echinochloa crus-galli
Summary of the method: (§1)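 Greenhouse injury scoring (0–100, complete control = 100) at approximately ten days follows simultaneous pre- and postemergence application. Soil received a directed spray after seeding; seedlings of 2–10 cm at the one- to two-leaf stage were sprayed to runoff.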

[2] = tested on: large crabgrass; assay: Test A pre-/postemergence herbicide test; type: in vivo, Digitaria sanguinalis
Summary of the method: as §1

[3] = tested on: giant foxtail; assay: Test A pre-/postemergence herbicide test; type: in vivo, Setaria faberi
Summary of the method: as §1

[4] = tested on: blackgrass; assay: Test B postemergence herbicide test; type: in vivo, Alopecurus myosuroides; conditions: scale 0 (no effect) to 100 (complete control)
Summary of the method: (§2)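 Greenhouse test; postemergence application to plants at 1–4 leaves (2–18 cm); paddy species at 2 leaves; evaluated visually vs controls at 13–15 days; scale 0–100 (100 = complete control).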

[5] = tested on: ducksalad; assay: Test B flooded paddy test; type: in vivo, Heteranthera limosa; conditions: 1000 g ai/ha, visual rating, scale 0 to 100 (0 no effect, 100 complete control), 13 to 15 days
Summary of the method: as §2

[6] = tested on: cocklebur; assay: Test C pre-/postemergence herbicide test; type: in vivo, Xanthium strumarium; conditions: for Cocklebur plant response rating: 500 g ai/ha
Summary of the method: (§3)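 Pre/post spray; non-phytotoxic solvent + surfactant. Post-timing 1–4 leaves, 2–18 cm. Read-out: visual % control vs untreated, day 12–14, greenhouse.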

[7] = tested on: corn; assay: Test C pre-/postemergence herbicide test; type: in vivo, Zea mays; conditions: for Corn plant response rating: 500 g ai/ha
Summary of the method: as §3

[8] = tested on: woolly cupgrass; assay: Test C pre-/postemergence herbicide test; type: in vivo, Eriochloa villosa; conditions: for Cupgrass, Woolly plant response rating: 500 g ai/ha
Summary of the method: as §3

[9] = tested on: common (oilseed) sunflower; assay: Test C pre-/postemergence herbicide test; type: in vivo, Helianthus annuus; conditions: for Plant response rating (0 = no effect, 100 = complete control), Sunflower: 62 g ai/ha; for Plant response rating (0 = no effect, 100 = complete control), Sunflower / Plant response rating, Sunflower: preemergence
Summary of the method: as §3

[10] = Postemergence, 500 g ai/ha, 0 to 100 scale, 0 no effect, 100 complete control
[11] = Postemergence, 2000 g ai/ha, 0 to 100 scale, 0 no effect, 100 complete control
[12] = Preemergence, 500 g ai/ha, visual rating, 0 to 100 scale (0 no effect, 100 complete control)
[13] = Preemergence, 2000 g ai/ha, visual rating, 0 to 100 scale (0 no effect, 100 complete control)
[14] = 250 g ai/ha, scale 0 to 100 (0 no effect, 100 complete control), visual, 12 to 14 days, preemergence
[15] = Postemergence, 250 g ai/ha, scale 0 to 100, 0 no effect, 100 complete control
[16] = Preemergence, scale 0 to 100, 0 no effect, 100 complete control
[17] = postemergence, 125 g ai/ha, scale 0 to 100
[18] = 125 g ai/ha, scale 0 (no effect) to 100 (complete control), visual, 12 to 14 days, preemergence
[19] = Preemergence, 2000 g ai/ha, 0 to 100 scale, 0 no effect, 100 complete control
[20] = 31 g ai/ha, preemergence, scale 0 to 100
[21] = 125 g ai/ha, scale 0-100, preemergence
[22] = Postemergence, 125 g ai/ha, scale 0 to 100, 0 no effect, 100 complete control
[23] = postemergence, 62 g ai/ha, scale 0 to 100
[24] = postemergence, 31 g ai/ha, scale 0 to 100

CCn1nc(C(C)(C)C)cc1C(=O)Nc1cccc(SC(F)(F)F)c1 [Compound 130]
Barnyardgrass plant response rating [1, 10]: 20
Plant response rating, Barnyardgrass [1, 11]: 20
Barnyardgrass plant response rating [1, 12]: 40
Barnyardgrass plant response rating [1, 13]: 30
Crabgrass, Large plant response rating [2, 10]: 20
Plant response rating, Crabgrass, Large [2, 11]: 20
Crabgrass, Large plant response rating [2, 12]: 45
Crabgrass, Large plant response rating [2, 13]: 60
Foxtail, Giant plant response rating [3, 10]: 10
Plant response rating, Foxtail, Giant [3, 11]: 10
Foxtail, Giant plant response rating [3, 12]: 50
Foxtail, Giant plant response rating [3, 13]: 55
Blackgrass plant response rating ([4]; postemergence, 125 g ai/ha, visual rating): 20
Blackgrass plant response rating ([4]; postemergence, 500 g ai/ha, visual rating): 60
Ducksalad plant response rating [5]: 10
Plant response rating (0 = no effect, 100 = complete control), Cocklebur ([6]; 62 g ai/ha, preemergence): 0
Plant response rating, Cocklebur [6, 14]: 70
Cocklebur plant response rating ([6]; Postemergence, scale 0 to 100): 100
Plant response rating, Cocklebur [6, 15]: 90
Cocklebur plant response rating [6, 16]: 100
Plant response rating, Cocklebur [6, 17]: 30
Plant response rating (0 = no effect, 100 = complete control), Corn ([7]; 62 g ai/ha, preemergence): 0
Plant response rating, Corn [7, 18]: 5
Plant response rating, Corn [7, 14]: 5
Corn plant response rating ([7]; Postemergence, scale 0 to 100): 50
Plant response rating, Corn [7, 15]: 45
Corn plant response rating [7, 16]: 10
Plant response rating, Corn [7, 17]: 45
Plant response rating (0 = no effect, 100 = complete control), Cupgrass, Woolly ([8]; 62 g ai/ha, preemergence): 5
Plant response rating, Cupgrass, Woolly [8, 18]: 10
Plant response rating, Cupgrass, Woolly [8, 14]: 40
Cupgrass, Woolly plant response rating ([8]; Postemergence, scale 0 to 100): 80
Plant response rating, Cupgrass, Woolly [8, 15]: 60
Cupgrass, Woolly plant response rating [8, 16]: 70
Plant response rating, Cupgrass, Woolly [8, 17]: 50
Plant response rating (0 = no effect, 100 = complete control), Sunflower [9]: 0
Plant response rating, Sunflower ([9]; 125 g ai/ha, scale 0 (no effect) to 100 (complete control), visual, 12 to 14 days): 0
Sunflower plant response rating ([9]; Preemergence, 500 g ai/ha, scale 0 to 100, 0 no effect, 100 complete control): 0

C=Cn1nc(C(C)(C)C)cc1C(=O)Nc1cccc(C(=O)NCC)c1 [Compound 33]
Plant response rating, Barnyardgrass [1, 10]: 75
Plant response rating, Barnyardgrass [1, 11]: 90
Barnyardgrass plant response rating [1, 12]: 55
Barnyardgrass plant response rating [1, 19]: 80
Plant response rating, Crabgrass, Large [2, 10]: 65
Plant response rating, Crabgrass, Large [2, 11]: 85
Crabgrass, Large plant response rating [2, 12]: 90
Crabgrass, Large plant response rating [2, 19]: 95
Plant response rating, Foxtail, Giant [3, 10]: 70
Plant response rating, Foxtail, Giant [3, 11]: 85
Foxtail, Giant plant response rating [3, 12]: 80
Foxtail, Giant plant response rating [3, 19]: 95
Blackgrass plant response rating ([4]; Postemergence, 125 g ai/ha): 20
Plant response rating, Blackgrass ([4]; Postemergence, 500 g ai/ha, visual rating after 13 to 15 days): 20
Ducksalad plant response rating [5]: 90
Plant response rating, Cocklebur [6, 20]: 0
Plant response rating (0 = no effect, 100 = complete control), Cocklebur ([6]; 62 g ai/ha, preemergence): 0
Plant response rating, Cocklebur [6, 21]: 30
Plant response rating, Cocklebur [6, 22]: 70
Plant response rating, Cocklebur ([6]; postemergence, 16 g ai/ha, scale 0 to 100): 20
Plant response rating, Cocklebur [6, 23]: 50
Plant response rating, Corn [7, 20]: 0
Plant response rating (0 = no effect, 100 = complete control), Corn ([7]; 62 g ai/ha, preemergence): 0
Plant response rating, Corn [7, 21]: 0
Plant response rating, Corn [7, 22]: 40
Plant response rating, Corn [7, 24]: 40
Plant response rating, Corn [7, 23]: 40
Plant response rating, Cupgrass, Woolly [8, 20]: 20
Plant response rating (0 = no effect, 100 = complete control), Cupgrass, Woolly ([8]; 62 g ai/ha, preemergence): 20
Plant response rating, Cupgrass, Woolly [8, 21]: 50
Plant response rating, Cupgrass, Woolly [8, 22]: 60
Plant response rating, Cupgrass, Woolly [8, 24]: 50
Plant response rating, Cupgrass, Woolly [8, 23]: 60
Plant response rating, Sunflower ([9]; 31 g ai/ha, scale 0 to 100): 0
Plant response rating (0 = no effect, 100 = complete control), Sunflower [9]: 0
